The subject of data set [1] is Z138 cells. In words: MTT cell proliferation assay, Z138 cells. The data set is classed as cell-based, human. The note with it: approximately 64-72 hours incubation. The procedure: (§1) The MTT cell proliferation assay was used to study the cytotoxic properties of the compounds. The assay was performed according to the method described by Roche Molecular Biochemicals, with minor modifications. The assay is based on the cleavage of the tetrazolium salt, MTT, in the presence of an electron-coupling reagent. The water-insoluble formazan salt produced must be solubilized in an additional step. Cells grown in a 96-well tissue culture plate were incubated with the MTT solution for approximately 4 hours. After this incubation period, a water-insoluble formazan dye formed. After solubilization, the formazan dye was quantitated using a scanning multi-well spectrophotometer (ELISA reader). […] The cells were seeded at 5,000-10,000 cells in each well of 96-well plate in 100 μL of fresh culture medium and were allowed to attach overnight. The stock solutions of the compounds were diluted in 100 μL cell culture medium to obtain eight concentrations of each test compound, ranging from 1 nM to 30 μM. […] All optical densities were measured at 490 nm using a Vmax Kinetic Microplate Reader (Molecular Devices). In most cases, the assay was performed in duplicate and the results were presented as a mean percent inhibition to the negative control±SE. The following formula was used to calculate the percent of inhibition: Inhibition (%)=(1-(ODo/OD))×100.
(§2) The compounds were tested against MS751, Z138 and 3T3 cells. The MS751 cell line is derived from a metastasis to lymph node of human cervix from a patient diagnosed with squameous cell carcinoma of the cervix. The Z138 cell line is a mature B-cell acute lymphoblastic leukemia cell line derived from a patient with chronic lymphocytic leukemia. 3T3 cells are standard fibroblast cells; they were originally isolated from Swiss mouse embryo tissue.
Background: Tetrazolium dyes change colour on reduction, which living cells bring about.

For data set [2], the system named is MS751 cells. As to the kind of experiment: MTT cell proliferation assay, MS751 cells. To be noted: approximately 64-72 hours incubation. The format is cell-based, human. The procedure: as §1, §2
Data set [3] relates to 3T3 cells. In words: MTT cell proliferation assay, 3T3 cells. The data set is classed as cell-based, mouse. The procedure: as §1, §2
The nature of data set [4]: Plasma protein binding. The data set is classed as in vitro ADME. To be noted: human plasma.
Data set [5] relates to Molt-4 T-ALL cancer xenograft; NCI-H520 lung cancer xenograft. As to the kind of experiment: Xenograft models in mice (Molt-4 T-ALL in SCID mice; NCI-H520 lung cancer in nu/nu mice). The data set is classed as in vivo, mouse. To be noted: Molt-4 xenograft 10 and 20 mg/kg PO BID; H520 xenograft 100 mg/kg PO BID. The procedure:
In this study, the impact of the compound of Example 2 on tumor growth was tested using the Molt-4 T-ALL cancer xenograft model in SCID mice. MOLT 4 (CRL-1582) acute lymphoblastic leukemia cells were obtained from ATCC. These cells were grown in RPMI-1640 medium supplemented with 10% fetal bovine serum, 1% penicillin and streptomycin. Cells were sub-cultured by transferring floating cells to a new flask and trypsinizing adherent cells before subculturing at a ratio of 1:4. Molt-4 cells were harvested by centrifugation and counted using a hemocytometer. Cells were resuspended in PBS at a 5×10^7 cells per mL. Cells were placed on ice and mixed with an equal volume of Matrigel (BD Biosciences CB-40234). This mixture was kept on ice and injected into the left flank of mice in a volume of […], equivalent to 5×10^6 cells per mouse. Twenty-four (24) CB-17 SCID mice were inoculated subcutaneously in the left flank Molt-4 cells. Treatment was initiated when the tumors reached a mean volume of ˜135 mm^3. […] Animal weights and conditions were recorded daily, and tumors were measured on Mondays, Wednesdays and Fridays.
In this study, the impact of the compound of Example 2 on tumor growth was tested using the NCI-H520 lung cancer xenograft model in nu/nu mice. […] Animal weights and conditions were recorded daily, and tumors were measured on Mondays, Wednesdays and Fridays.

Where [6] appears, read: approximately 64-72 hours incubation.
[7] abbreviates: Homo sapiens, Z-138, Z138 cells.
Where [8] appears, read: Homo sapiens, MS751, MS751 cells.
Setting [9] is: Mus musculus, NIH3T3, approximately 64-72 hours incubation.

The source of these data is patent publication US10363247B2, “(S,E)-3-(6-aminopyridin-3-yl)-N-((5-(4-(3-fluoro-3-methylpyrrolidine-1-carbonyl)phenyl-7-(4-fluorophenyl)benzofuran-2-yl)methyl)acrylamide for the treatment of cancer” (Karyopharm Therapeutics Inc., priority 2015, dated 2019).

For orientation: IC50 means the concentration at which inhibition is half-maximal. A lower IC50 goes with greater potency in that assay.

Regarding `CC1(F)CCN(C(=O)c2ccc(-c3cc(C(F)(F)F)c4oc(CNC(=O)/C=C/c5ccc(N)nc5)cc4c3)cc2)C1` (single isomer, unassigned) [Example X-4, (E)-3-(6-aminopyridin-3-yl)-N-((5-(4-(3-fluoro-3-methylpyrrolidine-1-carbonyl)phenyl)-7-(trifluoromethyl)benzofuran-2-yl)methyl)acrylamide], the results for the IC50 in data set [1] (Z138 cells), in data set [2] (MS751 cells) and in data set [3] (setting [6]) were 1.5 µM, 2.1 µM and over 10 µM, respectively.
As for `C[C@@]1(F)CCN(C(=O)c2ccc(-c3cc(-c4ccc(F)cc4)c4oc(CNC(=O)/C=C/c5ccc(N)nc5)cc4c3)cc2)C1` [Example 3, (R,E)-3-(6-aminopyridin-3-yl)-N-((5-(4-(3-fluoro-3-methylpyrrolidine-1-carbonyl)phenyl)-7-(4-fluorophenyl)benzofuran-2-yl)methyl)acrylamide], the IC50 in data set [1] (setting [7]) is 0.02 µM; in data set [2] (setting [8]), 0.09 µM; in data set [3] (setting [9]) it was over 10 µM.
With `CC1(F)CCN(C(=O)c2ccc(-c3cc(C(F)(F)F)c4oc(CNC(=O)/C=C/c5ccc(N)nc5)cc4c3)cc2)C1` (single isomer, unassigned) [Example X-3, (E)-3-(6-aminopyridin-3-yl)-N-((5-(4-(3-fluoro-3-methylpyrrolidine-1-carbonyl)phenyl)-7-(trifluoromethyl)benzofuran-2-yl)methyl)acrylamide], the IC50 is 0.4 µM in data set [1] (Z138 cells), 0.4 µM in data set [2] (MS751 cells) and over 10 µM in data set [3] (setting [9]).
As to `CC1(F)CCN(C(=O)c2ccc(-c3cc(-c4ccc(F)cc4)c4oc(CNC(=O)/C=C/c5ccc(N)nc5)cc4c3)cc2)C1` (racemic) [Example 1, (±)-(E)-3-(6-aminopyridin-3-yl)-N-((5-(4-(3-fluoro-3-methylpyrrolidine-1-carbonyl)phenyl)-7-(4-fluorophenyl)benzofuran-2-yl)methyl)acrylamide], the results for the IC50 in data set [1] (setting [7]), in data set [2] (setting [8]) and in data set [3] (setting [9]) were under 0.005 µM, 0.03 µM and 1.26 µM, respectively.
On to `CC1(F)CCN(C(=O)c2ccc(-c3cc(C(F)(F)F)c4oc(CNC(=O)/C=C/c5ccc(N)nc5)cc4c3)cc2)C1` (single isomer, unassigned) [Example X-2, (E)-3-(6-aminopyridin-3-yl)-N-((5-(4-(3-fluoro-3-methylpyrrolidine-1-carbonyl)phenyl)-7-(trifluoromethyl)benzofuran-2-yl)methyl)acrylamide], for which the IC50 is 0.24 µM in data set [1] (Z138 cells), 0.52 µM in data set [2] (MS751 cells) and over 10 µM in data set [3] (setting [6]).
For `Nc1ccc(/C=C/C(=O)NCc2cc3cc(-c4ccc(C(=O)N5CCC(F)(F)CC5)cc4)cc(-c4ccc(F)cc4)c3o2)cn1` [Example X-1, (E)-3-(6-aminopyridin-3-yl)-N-((5-(4-(4,4-difluoropiperidine-1-carbonyl)phenyl)-7-(4-fluorophenyl)benzofuran-2-yl)methyl)acrylamide], the IC50 stood at 0.018 µM in data set [1] (setting [7]), 0.05 µM in data set [2] (setting [8]) and 3.6 µM in data set [3] (setting [9]). The “Fraction of Bound” value in data set [4] stood at 100%.
For the compound `C[C@]1(F)CCN(C(=O)c2ccc(-c3cc(-c4ccc(F)cc4)c4oc(CNC(=O)/C=C/c5ccc(N)nc5)cc4c3)cc2)C1` [Example 2, (S,E)-3-(6-aminopyridin-3-yl)-N-((5-(4-(3-fluoro-3-methylpyrrolidine-1-carbonyl)phenyl)-7-(4-fluorophenyl)benzofuran-2-yl)methyl)acrylamide], the “efficacy in vivo (tumor growth)” value in data set [5] is reported as “demonstrated efficacy in vivo”. In addition, the values for the IC50 in data set [1] (setting [7]), in data set [2] (setting [8]) and in data set [3] (setting [9]) were under 0.005 µM, 0.008 µM and 1.18 µM, respectively. The “Fraction of Bound” value in data set [4] is reported as 95.2%.
